Source: patent US20230398130A1, “METHODS AND COMPOSITIONS FOR DIFFERENTIATING STEM CELLS” (Massachusetts Institute of Technology, priority 2020, published 2023)

Key:
ISC-enriched organoids [1] = assay: Primary screen, 384-well 2.5-D organoid differentiation (ENR+CD, 6 days): basal lysozyme secretion (LYZ.NS); type: cell-based, murine; details: for Dose.FC.LYZ.NS: FC vs plate median; for Dose.FC.LYZ.NS (log 2 fold change, basal lysozyme secretion): vs plate median; for SSMD.LYZ.NS: strictly standardized mean difference
Text: (§1) High-throughput screening.

ISC-enriched organoids [2] = assay: Primary screen, 384-well 2.5-D organoid differentiation (ENR+CD, 6 days): carbachol-induced lysozyme secretion (LYZ.S); type: cell-based, murine; details: for Dose.FC.LYZ.S / Z.LYZ.S / SSMD.LYZ.S: primary screen; for Dose.FC.LYZ.S: FC vs plate median; for Dose.FC.LYZ.S (log 2 fold change, carbachol-induced lysozyme secretion): vs plate median; for Z.LYZ.S: standard z score; for SSMD.LYZ.S: strictly standardized mean difference
Text: as §1

ISC-enriched organoids [3] = assay: Primary screen, 384-well 2.5-D organoid differentiation (ENR+CD, 6 days, Target Selective Inhibitor Library, vs whole-plate median): ATP (CellTiter-Glo 3D, CTG); details: for Dose.FC.CTG: FC vs plate median; for Dose.FC.CTG (log 2 fold change, ATP): vs plate median; for SSMD.CTG: strictly standardized mean difference
[4] = primary screen, dose 0.08 uM, ENR+CD 6 days
[5] = primary screen, dose 0.08 uM, standard z score of FC
[6] = primary screen, dose 0.40 uM, ENR+CD 6 days
[7] = primary screen, dose 0.40 uM, standard z score of FC
[8] = primary screen, dose 2.00 uM, ENR+CD 6 days
[9] = primary screen, dose 2.00 uM, standard z score of FC
[10] = primary screen, dose 10.00 uM, ENR+CD 6 days
[11] = primary screen, dose 10.00 uM, standard z score of FC
[12] = Dose 0.08 uM, primary screen, standard z score
[13] = Dose 0.40 uM, primary screen, standard z score
[14] = Dose 2.00 uM, primary screen, standard z score
[15] = Dose 10.00 uM, primary screen, standard z score
[16] = Dose 0.08 uM, standard z score of FC
[17] = Dose 0.40 uM, standard z score of FC
[18] = Dose 2.00 uM, standard z score of FC
[19] = Dose 10.00 uM, standard z score of FC
[20] = primary screen, 1st of the 4 dose lines of the treatment (dose not given)
[21] = primary screen, 2nd of the 4 dose lines of the treatment (dose not given)
[22] = primary screen, 3rd of the 4 dose lines of the treatment (dose not given)
[23] = primary screen, 4th of the 4 dose lines of the treatment (dose not given)
[24] = 1st of the 4 dose lines of the treatment (dose not given)
[25] = 2nd of the 4 dose lines of the treatment (dose not given)
[26] = 3rd of the 4 dose lines of the treatment (dose not given)
[27] = 4th of the 4 dose lines of the treatment (dose not given)

For `O=C1C(=O)N(Cc2ccc(Cl)c(Cl)c2)c2ccccc21` [Apoptosis Activator 2], the Dose.FC.LYZ.NS (ISC-enriched organoids [1]; [4]) was 0.149 log 2 fold change, the Z.LYZ.NS (ISC-enriched organoids [1]; [5]) was 1.302 and the Dose.FC.LYZ.NS (ISC-enriched organoids [1]; [6]) was 0.033 log 2 fold change. It also gave a Z.LYZ.NS (ISC-enriched organoids [1]; [7]) of 0.290, a Dose.FC.LYZ.NS (ISC-enriched organoids [1]; [8]) of −0.006 log 2 fold change and a Z.LYZ.NS (ISC-enriched organoids [1]; [9]) of −0.049. It also gave a Dose.FC.LYZ.NS (ISC-enriched organoids [1]; [10]) of −0.199 log 2 fold change, a Z.LYZ.NS (ISC-enriched organoids [1]; [11]) of −1.734 and a Dose.FC.LYZ.S (ISC-enriched organoids [2]; dose 0.08 uM, ENR+CD 6 days) of 0.132 log 2 fold change. The Dose.FC.LYZ.S (ISC-enriched organoids [2]; dose 0.40 uM, ENR+CD 6 days) was 0.073 log 2 fold change, the Dose.FC.LYZ.S (ISC-enriched organoids [2]; dose 2.00 uM, ENR+CD 6 days) was −0.009 log 2 fold change and the Dose.FC.LYZ.S (ISC-enriched organoids [2]; dose 10.00 uM, ENR+CD 6 days) was −0.252 log 2 fold change. The Dose.FC.CTG (ISC-enriched organoids [3]; [4]) was 0.304 log 2 fold change, the Z.CTG (ISC-enriched organoids [3]; [5]) was 0.725 and the Dose.FC.CTG (ISC-enriched organoids [3]; [6]) was 0.262 log 2 fold change. For the same molecule, the Z.CTG (ISC-enriched organoids [3]; [7]) was 0.626, the Dose.FC.CTG (ISC-enriched organoids [3]; [8]) was 0.082 log 2 fold change and the Z.CTG (ISC-enriched organoids [3]; [9]) was 0.195. For the same molecule, the Dose.FC.CTG (ISC-enriched organoids [3]; [10]) was −0.158 log 2 fold change and the Z.CTG (ISC-enriched organoids [3]; [11]) was −0.378.

For `C[C@H](Cn1cnc2c(N)ncnc21)OCP(=O)(O)O` [Tenofovir], the “Z.LYZ.NS (standard z score)” value (ISC-enriched organoids [1]; dose 0.08 uM) was 0.673, the “Dose.FC.LYZ.NS (log 2 fold change, basal lysozyme secretion)” value (ISC-enriched organoids [1]; dose 0.08 uM) was 0.077 and the “Z.LYZ.NS (standard z score)” value (ISC-enriched organoids [1]; dose 0.40 uM) was −0.662. For the same molecule, the “Dose.FC.LYZ.NS (log 2 fold change, basal lysozyme secretion)” value (ISC-enriched organoids [1]; dose 0.40 uM) was −0.076, the “Z.LYZ.NS (standard z score)” value (ISC-enriched organoids [1]; dose 2.00 uM) was −1.153 and the “Dose.FC.LYZ.NS (log 2 fold change, basal lysozyme secretion)” value (ISC-enriched organoids [1]; dose 2.00 uM) was −0.132. The “Z.LYZ.NS (standard z score)” value (ISC-enriched organoids [1]; dose 10.00 uM) was −1.899, the “Dose.FC.LYZ.NS (log 2 fold change, basal lysozyme secretion)” value (ISC-enriched organoids [1]; dose 10.00 uM) was −0.218 and the “Dose.FC.LYZ.S (log 2 fold change, carbachol-induced lysozyme secretion)” value (ISC-enriched organoids [2]; dose 0.08 uM) was 0.045. The “Dose.FC.LYZ.S (log 2 fold change, carbachol-induced lysozyme secretion)” value (ISC-enriched organoids [2]; dose 0.40 uM) was −0.080, the “Dose.FC.LYZ.S (log 2 fold change, carbachol-induced lysozyme secretion)” value (ISC-enriched organoids [2]; dose 2.00 uM) was −0.171 and the “Dose.FC.LYZ.S (log 2 fold change, carbachol-induced lysozyme secretion)” value (ISC-enriched organoids [2]; dose 10.00 uM) was −0.271. For the same molecule, the “Z.CTG (standard z score)” value (ISC-enriched organoids [3]; dose 0.08 uM) was 0.045, the “Dose.FC.CTG (log 2 fold change, ATP)” value (ISC-enriched organoids [3]; dose 0.08 uM) was 0.019 and the “Z.CTG (standard z score)” value (ISC-enriched organoids [3]; dose 0.40 uM) was −0.200. The “Dose.FC.CTG (log 2 fold change, ATP)” value (ISC-enriched organoids [3]; dose 0.40 uM) was −0.084, the “Z.CTG (standard z score)” value (ISC-enriched organoids [3]; dose 2.00 uM) was −0.308 and the “Dose.FC.CTG (log 2 fold change, ATP)” value (ISC-enriched organoids [3]; dose 2.00 uM) was −0.129. The “Z.CTG (standard z score)” value (ISC-enriched organoids [3]; dose 10.00 uM) was −0.804 and the “Dose.FC.CTG (log 2 fold change, ATP)” value (ISC-enriched organoids [3]; dose 10.00 uM) was −0.337.

`CC(C)c1onc(-c2c(Cl)cccc2Cl)c1COc1ccc(/C=C/c2cccc(C(=O)O)c2)c(Cl)c1` [GW4064] was tested, and the Dose.FC.LYZ.NS (ISC-enriched organoids [1]; Dose 0.08 uM, primary screen) was 0.170 log 2 fold change, the Z.LYZ.NS (ISC-enriched organoids [1]; [12]) was 1.476 and the Dose.FC.LYZ.NS (ISC-enriched organoids [1]; Dose 0.40 uM, primary screen) was −0.022 log 2 fold change. For the same molecule, the Z.LYZ.NS (ISC-enriched organoids [1]; [13]) was −0.194, the Dose.FC.LYZ.NS (ISC-enriched organoids [1]; Dose 2.00 uM, primary screen) was 0.022 log 2 fold change and the Z.LYZ.NS (ISC-enriched organoids [1]; [14]) was 0.196. The Dose.FC.LYZ.NS (ISC-enriched organoids [1]; Dose 10.00 uM, primary screen) was −0.059 log 2 fold change, the Z.LYZ.NS (ISC-enriched organoids [1]; [15]) was −0.516 and the Dose.FC.LYZ.S (ISC-enriched organoids [2]; Dose 0.08 uM) was 0.028 log 2 fold change. It also gave a Dose.FC.LYZ.S (ISC-enriched organoids [2]; Dose 0.40 uM) of 0.097 log 2 fold change, a Dose.FC.LYZ.S (ISC-enriched organoids [2]; Dose 2.00 uM) of 0.000 log 2 fold change and a Dose.FC.LYZ.S (ISC-enriched organoids [2]; Dose 10.00 uM) of −0.071 log 2 fold change. It also gave a Dose.FC.CTG (ISC-enriched organoids [3]; Dose 0.08 uM, primary screen) of −0.134 log 2 fold change, a Z.CTG (ISC-enriched organoids [3]; [12]) of −0.320 and a Dose.FC.CTG (ISC-enriched organoids [3]; Dose 0.40 uM, primary screen) of 0.140 log 2 fold change. For the same molecule, the Z.CTG (ISC-enriched organoids [3]; [13]) was 0.334, the Dose.FC.CTG (ISC-enriched organoids [3]; Dose 2.00 uM, primary screen) was −0.145 log 2 fold change and the Z.CTG (ISC-enriched organoids [3]; [14]) was −0.346. It also gave a Dose.FC.CTG (ISC-enriched organoids [3]; Dose 10.00 uM, primary screen) of −0.157 log 2 fold change and a Z.CTG (ISC-enriched organoids [3]; [15]) of −0.375.

Work on `CCCC(=O)Nc1cccc(NC(=O)c2ccccc2Br)c1` [ML161] yielded a Dose.FC.LYZ.NS (ISC-enriched organoids [1]; Dose 0.08 uM, primary screen) of 0.018 log 2 fold change, a Z.LYZ.NS (ISC-enriched organoids [1]; [16]) of 0.158 and a Dose.FC.LYZ.NS (ISC-enriched organoids [1]; Dose 0.40 uM, primary screen) of −0.027 log 2 fold change. It also gave a Z.LYZ.NS (ISC-enriched organoids [1]; [17]) of −0.237, a Dose.FC.LYZ.NS (ISC-enriched organoids [1]; Dose 2.00 uM, primary screen) of 0.037 log 2 fold change and a Z.LYZ.NS (ISC-enriched organoids [1]; [18]) of 0.323. The Dose.FC.LYZ.NS (ISC-enriched organoids [1]; Dose 10.00 uM, primary screen) was −0.057 log 2 fold change, the Z.LYZ.NS (ISC-enriched organoids [1]; [19]) was −0.494 and the SSMD.LYZ.NS (ISC-enriched organoids [1]; [20]) was 0.117. The SSMD.LYZ.NS (ISC-enriched organoids [1]; [21]) was −0.239, the SSMD.LYZ.NS (ISC-enriched organoids [1]; [22]) was 0.354 and the SSMD.LYZ.NS (ISC-enriched organoids [1]; [23]) was −0.421. The Dose.FC.LYZ.S (ISC-enriched organoids [2]; Dose 0.08 uM) was 0.017 log 2 fold change, the Dose.FC.LYZ.S (ISC-enriched organoids [2]; Dose 0.40 uM) was −0.027 log 2 fold change and the Dose.FC.LYZ.S (ISC-enriched organoids [2]; Dose 2.00 uM) was 0.024 log 2 fold change. The Dose.FC.LYZ.S (ISC-enriched organoids [2]; Dose 10.00 uM) was −0.066 log 2 fold change, the Z.LYZ.S (ISC-enriched organoids [2]; [24]) was 0.113 and the Z.LYZ.S (ISC-enriched organoids [2]; [25]) was −0.173. The Z.LYZ.S (ISC-enriched organoids [2]; [26]) was 0.158, the Z.LYZ.S (ISC-enriched organoids [2]; [27]) was −0.429 and the SSMD.LYZ.S (ISC-enriched organoids [2]; [24]) was 0.096. It also gave an SSMD.LYZ.S (ISC-enriched organoids [2]; [25]) of −0.148, an SSMD.LYZ.S (ISC-enriched organoids [2]; [26]) of 0.152 and an SSMD.LYZ.S (ISC-enriched organoids [2]; [27]) of −0.282. It also gave a Dose.FC.CTG (ISC-enriched organoids [3]; Dose 0.08 uM, primary screen) of 0.086 log 2 fold change, a Z.CTG (ISC-enriched organoids [3]; [16]) of 0.205 and a Dose.FC.CTG (ISC-enriched organoids [3]; Dose 0.40 uM, primary screen) of 0.028 log 2 fold change. It also gave a Z.CTG (ISC-enriched organoids [3]; [17]) of 0.067, a Dose.FC.CTG (ISC-enriched organoids [3]; Dose 2.00 uM, primary screen) of 0.066 log 2 fold change and a Z.CTG (ISC-enriched organoids [3]; [18]) of 0.157. It also gave a Dose.FC.CTG (ISC-enriched organoids [3]; Dose 10.00 uM, primary screen) of −0.035 log 2 fold change, a Z.CTG (ISC-enriched organoids [3]; [19]) of −0.084 and an SSMD.CTG (ISC-enriched organoids [3]; [20]) of 0.278. The SSMD.CTG (ISC-enriched organoids [3]; [21]) was 0.087, the SSMD.CTG (ISC-enriched organoids [3]; [22]) was 0.229 and the SSMD.CTG (ISC-enriched organoids [3]; [23]) was −0.107.
